pKi: −log10 of the molar value.
Biological target: T1, serine protease
T1 construct: purified serine protease, indigenously isolated from B. subtilis sp
Assay: casein hydrolysis assay with purified protease, inhibition kinetics
Format: biochemical, Bacillus subtilis

Work on `COC(=O)c1cn(C2CC2)c2cc(N3CCN(CC(=O)Nc4ccccc4)CC3)c(F)cc2c1=O` [4a, methyl 1-cyclopropyl-6-fluoro-4-oxo-7-(4-(2-oxo-2-(phenylamino)ethyl)piperazin-1-yl)-1,4-dihydro-quinoline-3-carboxylate] yielded a pKi of 7.00.

From publication PMC10065284, “Protease inhibition, in vitro antibacterial and IFD/MM-GBSA studies of ciprofloxacin-based acetanilides” (PLOS ONE, 2023)
